Test results: publication PMC7311426, “An amphipathic peptide with antibiotic activity against multidrug-resistant Gram-negative bacteria” (Nature Communications, 2020)
Converted amounts (≈) assume the structure as drawn. Where two headings read alike, the source gives them in different places. Residues, ends and D or L forms follow the SMILES beside them.

Key:
L. monocytogenes = test: microbe, parasite or virus in culture; details: for MIC: Listeria monocytogenes, ATCC19112, read-out: BMD MIC
Method in brief: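 MICs were scored by eye after 18-20 h static incubation at 37 °C, with bacteria at 5 × 10^5 CFU mL^−1 in MHB. Peptides were serially diluted 2-fold over 12 points, top 128 or 64 μg mL^−1. CAMHB (CLSI) and 1% agarose-MHB variants were also run, at least six replicates.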

[1] = tested on: K. pneumoniae clinical isolates; test: microbe, parasite or virus in culture
Method in brief: (§1)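 MIC90 from CLSI broth microdilution (M07-A9) in two clinical-isolate panels. US panel (331 isolates, 2010-2012): AA139 diluted in 0.01% acetic acid/0.1% BSA. Worldwide panel (445 isolates, 2011-2013, four regions): CAMHB, with 0.002% Tween 80 added for AA139 and polymyxin B.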

[2] = tested on: P. aeruginosa clinical isolates; test: microbe, parasite or virus in culture
Method in brief: as §1

[3] = tested on: P. aeruginosa (UNT138-1 & ATCC 27853); test: microbe, parasite or virus in culture; assay type: cell-based, Pseudomonas aeruginosa
Protocol: (§2) The test media was cation-adjusted MHB (CAMHB, Becton Dickinson) supplemented with 2% Noble Agar (Becton Dickinson) and additionally for AA139 with 0.1% BSA. The agar dilution MIC values were determined as recommended by Clinical and Laboratory Standards Institute (CLSI)[47]. […] The inoculum for the spontaneous mutation plates targeted 10^9 to 10^10 colony-forming units (CFU) per plate. The viable count of each suspension was determined by plating serial ten-fold dilutions onto MHB/NA in duplicate. In addition, agar plates without drug were inoculated as positive controls. Plates were inspected for growth at both 24 and 48 h. Colony counts were determined manually. Using the counts at 48 h, the spontaneous mutation frequency was calculated using the following equation: (average number of colonies from duplicate selection plates)/(total number of cells inoculated onto each plate). If there were no colonies on the antibiotic selection plates, the spontaneous mutation frequency was reported as less than the frequency observed with one colony to indicate that the spontaneous mutation frequency was less than the limit of detection (one CFU).

[4] = tested on: K. pneumoniae (#3010 & ST258); test: microbe, parasite or virus in culture; assay type: cell-based, Klebsiella pneumoniae
Protocol: as §2

A. baumannii ATCC 19636 = test: microbe, parasite or virus in culture; assay type: cell-based, Acinetobacter baumannii; details: for MIC: Acinetobacter baumannii, ATCC19636, read-out: MIC, Survanta (5%)
[5] = SPR binding to model membrane lipids; set-up: unit: 100 × RU/MW; details: mean of n = 3
Protocol: SPR experiments were performed on a Biacore T200 using an L1 sensor chip as previously described. Small unilamellar vesicles (SUVs) were prepared in PBS by sonication and extrusion. Lipids were dissolved in ethanol-free chloroform in 25 mL round-bottom flasks. 10% (mol/mol) of E. coli lipid A, diphosphoryl (Sigma-Aldrich, Cat # L5399) was added into 1,2-dimyristoyl-sn-glycero-3-phosphocholine (DMPC) (Auspep, Cat # 850345P) solution to make lipid A–DMPC mixtures, which were then deposited as a thin film by removal of the solvent (chloroform) under reduced pressure on a rotary evaporator and dried under high vacuum for at least 2 h. PBS was then added into each flask to give a 1 mM (DMPC) suspension, which was sonicated 5 min for five times. […] The SUVs were then injected into the flow cells of the L1 sensor chip for 2000 s at a low flow rate of 2 μL min^−1 to form a bilayer membrane model on the chip surface. Then, a series of peptide solutions (30–0.33 μM in 3-fold dilution), was injected across the flow cells at a flow rate of 30 μL min^−1, having an injection phase of 180 s, and a dissociation phase of 300 s. The binding responses (RU) were normalized by molecular weight (MW) of each peptide. The equation 100 × RU/MW was used for normalization.

[6] = Klebsiella pneumoniae, US isolates 2010–2012, K. pneumoniae Non-MDR, n = 24
[7] = Klebsiella pneumoniae, US isolates 2010–2012, K. pneumoniae XDR, n = 55
[8] = Worldwide isolates 2011-2013, K. pneumoniae n = 114
[9] = Pseudomonas aeruginosa, US isolates 2010–2012, P. aeruginosa Non-MDR, n = 41
[10] = Pseudomonas aeruginosa, US isolates 2010–2012, P. aeruginosa XDR, n = 37
[11] = Worldwide isolates 2011-2013, P. aeruginosa n = 111
[12] = A. baumannii ATCC 19636, type strain, BMD with 5% Survanta lung surfactant, mode, or median where no mode, n=4 to 6, where n=2 differs the higher value
[13] = A. baumannii ATCC 19636, type strain, BMD with 5% Survanta lung surfactant, replicate 1
[14] = A. baumannii ATCC 19636, type strain, BMD with 5% Survanta lung surfactant, replicate 2
[15] = A. baumannii ATCC 19636, type strain, BMD with 5% Survanta lung surfactant, replicate 3
[16] = A. baumannii ATCC 19636, type strain, BMD with 5% Survanta lung surfactant, replicate 4
[17] = A. baumannii ATCC 19636 type strain, n=2 to 6, mode or median
[18] = L. monocytogenes ATCC 19112, MHB, mode of 6 replicates

C[C@@H](O)[C@H]1C(=O)N2C(C(=O)O)=C(S[C@@H]3CN[C@H](C(=O)N(C)C)C3)[C@H](C)[C@H]12 [Meropenem, meropenem, reference compound]
MIC (L. monocytogenes): 0.5 µg/mL (≈ 1.3 µM) | MIC90 [1, 6]: 0.06 µg/mL (≈ 0.156 µM) | MIC90 [1, 7]: > 16 µg/mL | MIC50 [1, 8]: 0.03 µg/mL (≈ 0.0782 µM) | MIC90 [1, 8]: > 16 µg/mL | MIC90 [2, 9]: 16 µg/mL (≈ 41.7 µM) | MIC90 [2, 10]: > 16 µg/mL | MIC50 [2, 11]: 1 µg/mL (≈ 2.61 µM) | MIC90 [2, 11]: > 16 µg/mL

C[C@H]1COc2c(N3CCN(C)CC3)c(F)cc3c(=O)c(C(=O)O)cn1c23 [LEV, levofloxacin, reference compound]
MIC90 ([1]; Klebsiella pneumoniae): > 32 µg/mL | MIC50 [1, 8]: 0.25 µg/mL (≈ 0.692 µM) | MIC90 [1, 8]: > 32 µg/mL | MIC90 ([2]; Pseudomonas aeruginosa): > 32 µg/mL | MIC90 [2, 11]: > 32 µg/mL | MIC ([3]; Pseudomonas aeruginosa, ATCC27853, read-out: Agar (Noble) Dilution MIC, P. aeruginosa ATCC 27853): 2 µg/mL (≈ 5.53 µM) | MIC ([4]; Klebsiella pneumoniae, read-out: Agar (Noble) Dilution MIC, K. pneumoniae ST258): > 8 µg/mL

colistin
MIC, Survanta (5%) (A. baumannii ATCC 19636; [12]): 0.125 | MIC, Survanta (5%) replicates (A. baumannii ATCC 19636; [13]): 0.5 | MIC, Survanta (5%) replicates (A. baumannii ATCC 19636; [14]): 0.25 | MIC, Survanta (5%) replicates (A. baumannii ATCC 19636; [15]): 0.06 | MIC, Survanta (5%) replicates (A. baumannii ATCC 19636; [16]): 0.06 | MIC, Serum (50%) (A. baumannii ATCC 19636; A. baumannii ATCC 19636, type strain, BMD with 50% human serum, mode, or median where no mode, n=4 to 6, where n=2 differs the higher value): ≤0.031 | MIC, Serum (50%) replicates (A. baumannii ATCC 19636; A. baumannii ATCC 19636, type strain, BMD with 50% human serum, replicate 1): ≤0.031 | MIC, Serum (50%) replicates (A. baumannii ATCC 19636; A. baumannii ATCC 19636, type strain, BMD with 50% human serum, replicate 2): ≤0.031 | MIC, Serum (50%) replicates (A. baumannii ATCC 19636; A. baumannii ATCC 19636, type strain, BMD with 50% human serum, replicate 3): ≤0.031 | MIC, Serum (50%) replicates (A. baumannii ATCC 19636; A. baumannii ATCC 19636, type strain, BMD with 50% human serum, replicate 4): ≤0.031 | MIC, Serum (50%) (A. baumannii ATCC 19636; [17]): ≤ 0.031 µg/mL | MIC, Survanta (5%) (A. baumannii ATCC 19636; [17]): 0.125 µg/mL | BMD MIC (L. monocytogenes; [18]): 16 µg/mL | Agar (Noble) Dilution MIC ([3]; P. aeruginosa ATCC 27853): 2 µg/mL | Noble agar dilution MIC ([3]; P. aeruginosa ATCC 27853): 2 µg/mL | Noble agar dilution MIC ([3]; P. aeruginosa UNT138-1): 2 µg/mL | SPR response, Mean1 (DMPC) ([5]; 1uM): 7.037 | SPR response, Mean1 (DMPC) ([5]; 10uM): 58.5213 | Noble agar dilution MIC ([4]; K. pneumoniae SSI#3010): 1 µg/mL | Agar (Noble) Dilution MIC ([4]; K. pneumoniae ST258): 1 µg/mL | Noble agar dilution MIC ([4]; K. pneumoniae ST258): 1 µg/mL

CC(C)[C@@H]1NC(=O)[C@H](Cc2ccc(O)cc2)NC(=O)[C@H](Cc2c[nH]c3ccccc23)NC(=O)[C@@H](NC(=O)[C@H](Cc2ccccc2)NC(=O)CN)CSSC[C@@H](C(=O)N[C@@H](CC(N)=O)C(=O)O)NC(=O)[C@H](CCCNC(=N)N)NC(=O)[C@H](CCCNC(=N)N)NC(=O)[C@H](Cc2ccc(O)cc2)NC(=O)[C@@H]2CSSC[C@H](NC1=O)C(=O)N[C@@H](C)C(=O)N[C@@H](CCCNC(=N)N)C(=O)N[C@@H](CCCNC(=N)N)C(=O)N[C@@H](CC(N)=O)C(=O)NCC(=O)N[C@@H](C)C(=O)N[C@@H](CCCNC(=N)N)C(=O)N[C@@H](C(C)C)C(=O)N2 [AA139] (HELM PEPTIDE1{G.F.C.W.Y.V.C.A.R.R.N.G.A.R.V.C.Y.R.R.C.N}$PEPTIDE1,PEPTIDE1,3:R3-20:R3|PEPTIDE1,PEPTIDE1,7:R3-16:R3$$$V2.0)
BMD MIC (L. monocytogenes): 2 µg/mL | MIC90 ([1]; US isolates 2010–2012, K. pneumoniae Non-MDR, n = 24): 4 µg/mL (≈ 1.57 µM) | MIC90 ([1]; Worldwide isolates 2011–2013, K. pneumoniae incl. non-MDR, MDR, XDR, n = 114): 4 µg/mL (≈ 1.57 µM) | MIC against colistin-resistant isolates (did not surpass) ([1]; all but two K. pneumoniae isolates with a colistin MIC of 8–≥32 μg mL^−1, US panel): ≤ 4 µg/mL | MIC against colistin-resistant isolates (did not surpass) ([2]; P. aeruginosa with a colistin MIC of >32 μg mL^−1, US panel): ≤ 8 µg/mL | MIC90 ([2]; US isolates 2010–2012, P. aeruginosa Non-MDR, n = 41): 8 µg/mL (≈ 3.14 µM) | MIC90 ([2]; US isolates 2010–2012, P. aeruginosa XDR, n = 37): 4 µg/mL (≈ 1.57 µM) | MIC90 ([2]; Worldwide isolates 2011–2013, P. aeruginosa incl. non-MDR, MDR, XDR, n = 111): 8 µg/mL (≈ 3.14 µM) | MIC90 (P. aeruginosa) ([2]; clinical isolates): 8.0 µg/mL (≈ 3.14 µM) | Agar (Noble) Dilution MIC ([3]; P. aeruginosa ATCC 27853): 8 µg/mL | Agar (Noble) Dilution MIC ([3]; P. aeruginosa UNT138-1): 16 µg/mL | Agar (Noble) Dilution MIC ([4]; K. pneumoniae 3010): 16 µg/mL | Agar (Noble) Dilution MIC ([4]; K. pneumoniae ST258): 16 µg/mL

COc1cc(Cc2cnc(N)nc2N)cc(OC)c1OC [Trimethoprim]
MIC, Survanta (5%) (A. baumannii ATCC 19636; [12]): 32 | MIC, Survanta (5%) replicates (A. baumannii ATCC 19636; [13]): >64 | MIC, Survanta (5%) replicates (A. baumannii ATCC 19636; [14]): >64 | MIC, Survanta (5%) replicates (A. baumannii ATCC 19636; [15]): 16 | MIC, Survanta (5%) replicates (A. baumannii ATCC 19636; [16]): 32 | MIC (A. baumannii ATCC 19636; [17]): 32 µg/mL (≈ 110 µM)

polymyxin B [PolymyxinB, reference compound]
BMD MIC (L. monocytogenes; [18]): 4 µg/mL | MIC50 [1, 8]: 0.03 µg/mL | MIC90 [1, 8]: 0.06 µg/mL | MIC50 [2, 11]: 0.12 µg/mL | MIC90 [2, 11]: 0.25 µg/mL | SPR response, Mean1 (DMPC) ([5]; 1uM): 28.3373 | SPR response, Mean1 (DMPC) ([5]; 10uM): 126.211

CNC(C)C1CCC(N)C(OC2C(N)CC(N)C(OC3OCC(C)(O)C(NC)C3O)C2O)O1 (centres unmarked) [Gentamicin, gentamicin, reference compound]
MIC (L. monocytogenes): 0.125 µg/mL (≈ 0.262 µM) | MIC90 [1, 6]: 8 µg/mL (≈ 16.8 µM) | MIC90 [1, 7]: > 32 µg/mL | MIC50 [1, 8]: 0.5 µg/mL (≈ 1.05 µM) | MIC90 [1, 8]: > 32 µg/mL | MIC90 [2, 9]: > 32 µg/mL | MIC90 [2, 10]: > 32 µg/mL | MIC50 [2, 11]: 2 µg/mL (≈ 4.19 µM) | MIC90 [2, 11]: > 32 µg/mL

O=C(O)c1cn(C2CC2)c2cc(N3CCNCC3)c(F)cc2c1=O [Ciprofloxacin, ciprofloxacin]
MIC, Survanta (5%) (A. baumannii ATCC 19636; [12]): 1 | MIC, Survanta (5%) replicates (A. baumannii ATCC 19636; [14]): 1 | MIC, Survanta (5%) replicates (A. baumannii ATCC 19636; [15]): 1 | MIC, Survanta (5%) replicates (A. baumannii ATCC 19636; [16]): 1 | MIC (A. baumannii ATCC 19636; [17]): 1 µg/mL (≈ 3.02 µM)
